Test results reported in patent US6077843A, “Aqueous suspensions of 9-hydroxyrisperidone fatty acid esters” (Janssen Pharmaceutica, N.V., priority 1996, dated 2000).
Blank lines part the entries; values can stand above or below the compound they belong to.

Assays:
[1] = compared with risperidone; cited from earlier work
[2] = cited from earlier work
[3] = Systemic and local tolerance of depot formulations (described in words); type: in vivo
[4] = Particle size distribution of the milled and sieved ester; type: physicochemical
Excerpt: # The ester was milled and sieved using appropriate nominal standard test sieves, yielding active ingredient having a particle size distribution as follows: […]

[5] = Pharmacokinetic investigations on ester depot formulations (described in words); type: in vivo; settings: versus other C10-20 alkanoic acid esters
[6] = pamoate salt; cited from earlier work
[7] = cited from earlier work; remark: listed apart in the source
[8] = compared with 9-hydroxy-risperidone; cited from earlier work

SMILES: Cc1nc2n(c(=O)c1CCN1CCC(c3noc4cc(F)ccc34)CC1)CCCC2O (stereo not shown) [9-hydroxyrisperidone]
- pharmacological profile and potency [1]: comparable with that of the parent drug risperidone
- elimination half-life ([2]; compared with risperidone): longer elimination half-life

- particle size, 10% of the particles (by volume) ([4]; 10% by volume): ≥ 15 μm
- particle size, 50% of the particles (by volume) ([4]; 50% by volume): ≥ 5 μm
- particle size, 90% of the particles (by volume) ([4]; 90% by volume): ≥ 0.5 μm
- pharmacokinetic point of view [5]: superior ester
SMILES: CCCCCCCCCCCCCCCC(=O)OC1CCCn2c1nc(C)c(CCN1CCC(c3noc4cc(F)ccc34)CC1)c2=O (stereo not shown) [9-hydroxyrisperidone palmitate ester]
- difference between small or large prodrug particles ([3]; suspensions of the palmitate ester in sesame oil): No significant difference between small or large prodrug particles
- tolerance point of view ([3]; versus other C10-20 alkanoic acid esters): superior ester

SMILES: Cc1nc2n(c(=O)c1CCN1CCC(c3noc4cc(F)ccc34)CC1)CCCC2 [risperidone pamoate]
- initial plasma levels ([2]; suspension, WO-94/25460): relatively high initial plasma levels
- mean duration of action ([2]; suspension, WO-94/25460): inadequate mean duration of action
- release of the active ingredient ([2]; suspension, WO-94/25460): too rapid
- water solubility [6]: poorly water-soluble

SMILES: Cc1nc2n(c(=O)c1CCN1CCC(c3noc4cc(F)ccc34)CC1)CCCC2 [Risperidone, 3-[2-[4-(6-fluoro-1,2-benzisoxazol-3-yl)-1-piperidinyl]ethyl]-6,7,8,9-tetrahydro-2-methyl-4H-pyridol[1,2-a]pyrimidin-4-one]
- therapeutic index ([7]; in vivo): relatively narrow therapeutic index
- undesirable side effects on overdosage ([7]; overdosage): most notably extra pyramidal syndrome (EPS) and to a lesser extent hypotension
- distribution to and elimination from the brain tissues [8]: more rapidly than its metabolite 9-hydroxy-risperidone
- metabolism ([2]; in vivo): metabolized to 9-hydroxyrisperidone
